Usually pIC50 stands for the IC50 on a negative log10 scale, so that one unit is a factor of ten.

The values below come from patent publication US10894784B2, “Heteroarylbenzimidazole compounds” (BAYER PHARMA AKTIENGESELLSCHAFT, priority 2015, dated 2021).

pIC50: −log10 of the molar value.

The experiment deals with TBK1 (Homo sapiens (Human), UniProt Q9UHD2). The experiment is described as follows: TBK1 low ATP kinase assay (in vitro assay 1). The class given is biochemical. The note with it: in vitro assay 1, read-out: TBK1 low ATP kinase assay IC50.
Chain of TBK1 (Q9UHD2 whole entry): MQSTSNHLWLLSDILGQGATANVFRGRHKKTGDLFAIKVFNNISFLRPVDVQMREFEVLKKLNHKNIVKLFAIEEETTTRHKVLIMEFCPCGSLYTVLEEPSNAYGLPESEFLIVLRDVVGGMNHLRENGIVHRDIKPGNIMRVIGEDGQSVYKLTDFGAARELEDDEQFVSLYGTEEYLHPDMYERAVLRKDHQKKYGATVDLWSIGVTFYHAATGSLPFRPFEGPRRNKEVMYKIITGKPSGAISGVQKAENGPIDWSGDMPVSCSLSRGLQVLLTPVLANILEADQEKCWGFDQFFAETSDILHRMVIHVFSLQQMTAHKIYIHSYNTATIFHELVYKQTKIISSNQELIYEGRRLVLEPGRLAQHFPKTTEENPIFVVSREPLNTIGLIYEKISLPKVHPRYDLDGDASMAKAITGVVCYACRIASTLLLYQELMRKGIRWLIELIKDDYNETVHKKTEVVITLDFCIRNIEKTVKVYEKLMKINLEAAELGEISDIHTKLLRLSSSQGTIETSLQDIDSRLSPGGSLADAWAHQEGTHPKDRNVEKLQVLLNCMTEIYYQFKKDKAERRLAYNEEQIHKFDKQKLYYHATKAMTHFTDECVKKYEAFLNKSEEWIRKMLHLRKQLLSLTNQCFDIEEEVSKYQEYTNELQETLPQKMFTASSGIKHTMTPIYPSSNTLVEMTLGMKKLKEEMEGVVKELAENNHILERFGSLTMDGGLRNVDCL
Regarding `CC(c1ccnc(Nc2nc3ccc(-c4cnn(CC5CC5(F)F)c4)cc3[nH]2)c1)N1CCN(C(=O)CC(F)(F)F)CC1` (single isomer, unassigned) [Example 55.02.02, 1-{4-[(1R or 1S)-1-(2-{[6-(1-{[(1R or IS)-2,2-difluorocyclopropyl]methyl}-1H-pyrazol-4-yl)-1H-benzimidazol-2-yl]amino}pyridin-4-yl)ethyl]piperazin-1-yl}-3,3,3-trifluoropropan-1-one], the pIC50 was 8.89.

Consider `CC(c1ccnc(Nc2nc3ccc(-c4cnn(CC5CCC5)c4)c(F)c3[nH]2)c1)N1CCN(C(=O)CC(F)(F)F)CC1` (single isomer, unassigned) [Example 171.02, 1-(4-{(1R or 1S)-1-[2-({6-[1-(cyclobutylmethyl)-1H-pyrazol-4-yl]-7-fluoro-1H-benzimidazol-2-yl}amino)pyridin-4-yl]ethyl}piperazin-1-yl)-3,3,3-trifluoropropan-1-one], for which the pIC50 was 8.23.

Consider `CCc1nccc(-c2ccc3nc(Nc4cc(CN5CCN(C(=O)OC(C)(C)C)CC5)ccn4)[nH]c3c2)n1` [Example 28.01, tert-butyl 4-[(2-{[6-(2-ethylpyrimidin-4-yl)-1H-benzimidazol-2-yl]amino}pyridin-4-yl)methyl]piperazine-1-carboxylate], for which the negative-log IC50 (pIC50) was 6.95.

For `O=C(C1CC1)N1CCN(Cc2ccnc(Nc3nc4ccc(-c5cnc(Cl)cn5)cc4[nH]3)c2)CC1` [Example 140.03, {4-[(2-{[6-(5-chloropyrazin-2-yl)-1H-benzimidazol-2-yl]amino}pyridin-4-yl)methyl]piperazin-1-yl}(cyclopropyl)methanone], the pIC50 is 6.54.

Consider `Cc1noc(-c2ccc3nc(Nc4cc(C(C)N5CCN(C(=O)C(C)(C)O)CC5)ccn4)[nH]c3c2)n1` (single isomer, unassigned) [Example 16.06.06, 2-hydroxy-2-methyl-1-{4-[(1R or 1S)-1-(2-{[6-(3-methyl-1,2,4-oxadiazol-5-yl)-1H-benzimidazol-2-yl]amino}pyridin-4-yl)ethyl]piperazin-1-yl}propan-1-one], for which the pIC50 was 7.14.

For `Cc1cc(-c2ccc3nc(Nc4cc(C(C)N5CCN(C(=O)CC(F)(F)F)CC5)ccn4)[nH]c3c2F)ncn1` (single isomer, unassigned) [Example 172.02, 3,3,3-trifluoro-1-{4-[(1R or 1S)-1-(2-{[7-fluoro-6-(6-methylpyrimidin-4-yl)-1H-benzimidazol-2-yl]amino}pyridin-4-yl)ethyl)piperazin-1-yl}propan-1-one], the pIC50 is 7.92.

Consider `CC(c1ccnc(Nc2nc3ccc(-c4ccncn4)cc3[nH]2)c1)N1CCN(C(=O)CC(F)(F)F)CC1` (racemic) [Example 23.04.03, (rac)-3,3,3-trifluoro-1-{4-[1-(2-{[6-(pyrimidin-4-yl)-1H-benzimidazol-2-yl]amino}pyridin-4-yl)ethyl]piperazin-1-yl}propan-1-one], for which the pIC50 is 8.61.

Take `COc1c(-c2ccc3nc(Nc4cc(C(C)N5CCN(C(=O)OC(C)(C)C)CC5)ccn4)[nH]c3c2)ncnc1N1CCCC1` (single isomer, unassigned) [Example 112.01, tert-butyl 4-{(1R or S)-1-[2-({6-[5-methoxy-6-(pyrrolidin-1-yl)pyrimidin-4-yl]-1H-benzimidazol-2-yl}amino)pyridin-4-yl]ethyl}piperazine-1-carboxylate]: the pIC50 is 8.09.

Consider `CCN(C)c1cc(-c2ccc3nc(Nc4cc(CN5CCN(C(=O)OC(C)(C)C)CC5)ccn4)[nH]c3c2)ncn1` [Example 148.01, tert-butyl 4-({2-[(6-{6-[ethyl(methyl)amino]pyrimidin-4-yl}-1H-benzimidazol-2-yl)amino]pyridin-4-yl}methyl)piperazine-1-carboxylate], for which the pIC50 is 7.60.

As for `CC(c1ccnc(Nc2nc3ccc(-c4cc(N5CCOCC5)ncn4)cc3[nH]2)c1)N1CCN(C(=O)C2(C(F)(F)F)CC2)CC1` (single isomer, unassigned) [Example 118.04, (4-{(1R or 1S)-1-[2-({6-[6-(morpholin-4-yl)pyrimidin-4-yl]-1H-benzimidazol-2-yl}amino)pyridin-4-yl]ethyl}piperazin-1-yl)[1-(trifluoromethyl)cyclopropyl]methanone], the negative logarithm of the IC50 (pIC50) was 8.59.

With `CC(c1ccnc(Nc2nc3ccc(-c4cc(OCC(F)(F)F)ncn4)cc3[nH]2)c1)N1CCN(C(=O)C2CC2(F)F)CC1` (single isomer, unassigned) [Example 119.05, ((1RS)-2,2-difluorocyclopropyl)(4-{(1R or 1S)-1-[2-({6-[6-(2,2,2-trifluoroethoxy)pyrimidin-4-yl]-1H-benzimidazol-2-yl}amino)pyridin-4-yl]ethyl}piperazin-1-yl)methanone], the negative logarithm of the IC50 (pIC50) is 8.20.

Turning to `CC(c1ccnc(Nc2nc3ccc(-c4ccnn4C)cc3[nH]2)c1)N1CCN(C(=O)OC(C)(C)C)CC1` (single isomer, unassigned) [Example 123.01, tert-butyl 4-[(1R or 1S)-1-(2-{[6-(1-methyl-1H-pyrazol-5-yl)-1H-benzimidazol-2-yl]amino}pyridin-4-yl)ethyl]piperazine-1-carboxylate], the pIC50 is 7.44.

On to `COc1cncnc1-c1ccc2nc(Nc3cc(CN4CCN(S(=O)(=O)N5CCC(OC)CC5)CC4)ccn3)[nH]c2c1` [Example 35.01.17, N-[4-({4-[(4-methoxypiperidin-1-yl)sulfonyl]piperazin-1-yl}methyl)pyridin-2-yl]-6-(5-methoxypyrimidin-4-yl)-1H-benzimidazol-2-amine], for which the negative logarithm of the IC50 (pIC50) is 7.41.

In the case of `COCCCNc1cc(-c2ccc3nc(Nc4cc(CN5CCN(C(=O)OC(C)(C)C)CC5)ccn4)[nH]c3c2)ncn1` [Example 90.01, tert-butyl 4-({2-[(6-{6-[(3-methoxypropyl)amino]pyrimidin-4-yl}-1H-benzimidazol-2-yl)amino]pyridin-4-yl}methyl)piperazine-1-carboxylate], the pIC50 was 8.24.

On to `CC(c1ccnc(Nc2nc3ccc(-c4cnn(CC5CC5)c4)cc3[nH]2)c1)N1CCN(C(=O)OC(C)(C)C)CC1` (single isomer, unassigned) [Example 39.02.01, tert-butyl 4-{(1R or 1S)-1-[2-({6-[1-(cyclopropylmethyl)-1H-pyrazol-4-yl]-1H-benzimidazol-2-yl}amino)pyridin-4-yl]ethyl}piperazine-1-carboxylate], for which the pIC50 is 8.06.

`Cc1noc(-c2ccc3nc(Nc4cc(C(C)N5CCN(C(=O)C6(C(F)(F)F)CC6)CC5)ccn4)[nH]c3c2)n1` (single isomer, unassigned) [Example 16.06.04, {4-[(1R or 1S)-1-(2-{[6-(3-methyl-1,2,4-oxadiazol-5-yl)-1H-benzimidazol-2-yl]amino}pyridin-4-yl)ethyl]piperazin-1-yl}[1-(trifluoromethyl)cyclopropyl]methanone]: the pIC50 was 7.66.

As for `CC(C)(C)OC(=O)N1CCN(Cc2ccnc(Nc3nc4ccc(-c5cc(C6=CCOCC6)ncn5)cc4[nH]3)c2)CC1` [Example 198.01, tert-butyl 4-{[2-({6-[6-(3,6-dihydro-2H-pyran-4-yl)pyrimidin-4-yl]-1H-benzimidazol-2-yl}amino)pyridin-4-yl]methyl}piperazine-1-carboxylate], the pIC50 was 7.36.

Regarding `CC(c1ccnc(Nc2nc3ccc(-c4cnn(CC5CC5(F)F)c4)cc3[nH]2)c1)N1CCN(C(=O)OC(C)(C)C)CC1` (single isomer, unassigned) [Example 55.01.01, tert-butyl 4-[(1R or 1S)-1-(2-{[6-(1-{[(1R or 1S)-2,2-difluorocyclopropyl]methyl}-1H-pyrazol-4-yl)-1H-benzimidazol-2-yl]amino}pyridin-4-yl)ethyl]piperazine-1-carboxylate], the pIC50 was 8.26.

For the molecule `COc1c(NCC2CC2)ncnc1-c1ccc2nc(Nc3cc(CN4CCN(C(=O)OC(C)(C)C)CC4)ccn3)[nH]c2c1` [Example 109.01.01, tert-butyl 4-({2-[(6-{6-[(cyclopropylmethyl)amino]-5-methoxypyrimidin-4-yl}-1H-benzimidazol-2-yl)amino]pyridin-4-yl}methyl)piperazine-1-carboxylate], the pIC50 is 8.04.

Regarding `Cc1noc(-c2ccc3nc(Nc4cc(CN5CCN(C(=O)C(C)(C)O)CC5)ccn4)[nH]c3c2)n1` [Example 101.16, 2-hydroxy-2-methyl-1-{4-[(2-{[6-(3-methyl-1,2,4-oxadiazol-5-yl)-1H-benzimidazol-2-yl]amino}pyridin-4-yl)methyl]piperazin-1-yl}propan-1-one], the pIC50 is 6.72.

On to `Cc1nccc(-c2ccc3nc(Nc4cc(C(C)N5CCN(C(=O)C6CC6)CC5)ccn4)[nH]c3c2)n1` (racemic) [Example 24.04.01, (rac)-cyclopropyl{4-[1-(2-{[6-(2-methylpyrimidin-4-yl)-1H-benzimidazol-2-yl]amino}pyridin-4-yl)ethyl]piperazin-1-yl}methanone], for which the pIC50 was 8.04.

Turning to `COc1cncnc1-c1ccc2nc(Nc3cc(CN4CCN(C(=O)CC(F)(F)F)CC4)ccn3)[nH]c2c1` [Example 35.01.01, 3,3,3-trifluoro-1-{4-[(2-{[6-(5-methoxypyrimidin-4-yl)-1H-benzimidazol-2-yl]amino}pyridin-4-yl)methyl]piperazin-1-yl}propan-1-one], the pIC50 was 7.72.

With `Cc1nccc(-c2ccc3nc(Nc4cc(CN5CCN(C(=O)C6CCC6)CC5)ccn4)[nH]c3c2)n1` [Example 24.01.02, cyclobutyl{4-[(2-{[6-(2-methylpyrimidin-4-yl)-1H-benzimidazol-2-yl]amino}pyridin-4-yl)methyl]piperazin-1-yl}methanone], the pIC50 is 7.40.

As to `CC(C)Nc1cc(-c2ccc3nc(Nc4cc(CN5CCN(C(=O)OC(C)(C)C)CC5)ccn4)[nH]c3c2)ncn1` [Example 154.01, tert-butyl 4-{[2-({6-[6-(propan-2-ylamino)pyrimidin-4-yl]-1H-benzimidazol-2-yl}amino)pyridin-4-yl]methyl}piperazine-1-carboxylate], the pIC50 was 8.38.

Consider `CCn1cc(-c2ccc3nc(Nc4cc(CN5CCN(C(=O)C6CC6)CC5)ccn4)[nH]c3c2)cn1` [Example 38.03, cyclopropyl{4-[(2-{[6-(1-ethyl-1H-pyrazol-4-yl)-1H-benzimidazol-2-yl]amino}pyridin-4-yl)methyl]piperazin-1-yl}methanone], for which the pIC50 is 7.25.
